For test [1], the target named is T1, C. albicans HSP90–Sba1 binding (Candida albicans, UniProt P46598).
T1 construct: made in house; host or cells: E. coli BL21(DE3)
Nature of the test: FRET inhibitor screening assay, C. albicans HSP90-Sba1 binding. To be noted: 10 or 100 µM (Sba1 20 µM), triplicates, 3 mM ATP, 1% DMSO, 15 min 30 °C. The source says:
We used the Z′ factor (Z′) to optimize the FRET assays for screening purposes. Z′ represents a simple statistical parameter for the quality assessment and optimization of HTS assays and screening assays in general. It is a measure that determines the degree of signal separation between binding and non-binding data sets. Calculation of the Z′ factor is based on the standard deviation of the individual data sets as well as their general signal separation. Values ≥ 0.5 can be classified as excellent for screening purposes. […] When the fluorescent fusion proteins of HSP90 and co-chaperones bind to each other, FRET occurs between donor and acceptor fluorophores, and the sensitized emission (EmFRET) signal increases. Consequently, the fluorescence intensity of the donor decreases (FLDD). […] To obtain an informative Z′ value, we calculated it based on at least three independent experiments amounting to 144 samples for both binding and non-binding control data sets (Figure 4B,E). […] We defined the ‘hit threshold’ as a decrease in readout signal of more than 3 standard deviations (SDs) from the mean signal of the binding control. This constitutes a common threshold for hit identification in HTS campaigns.
(§1) FRET experiments were carried out in 384-well microtiter plates (Art. No. 3766 Corning, NY, USA, or Art. No. 781906, Greiner Bio-One GmbH, Frickenhausen, Germany) containing a final volume of 20 µL and measured with a microplate reader Infinite M200Pro (Tecan, Männedorf, Switzerland). The fluorescence was measured in three channels: excitation (ex.): 488 nm/emission (em.): 525 nm (mNeonGreen fluorescence), ex.: 561 nm/em.: 610 nm (mScarlet-I fluorescence) and the FRET channel ex.: 488 nm/em.: 610 nm. The excitation and emission bandwidths were set to 9 and 20 nm, respectively. Experiments for the determination of the equilibrium dissociation constants were performed with a filter-based microplate reader Infinite F200Pro (Tecan, Männedorf, Switzerland). The fluorescence was measured in three channels using the following filters: ex.: 485 ± 20 nm/em.: 535 ± 20 nm (mNeonGreen channel), ex.: 535 ± 20 nm/em.: 612 ± 10 nm (mScarlet-I channel) and the FRET channel ex.: 485 ± 20 nm/em.: 612 ± 10 nm. FRET emission (EmFRET) was calculated according to Song et al. 2011 [81]:(1) EmFRET=FLDA−x×FLDD−(y×FLAA) where FLDA is the fluorescence signal of the FRET channel and FLDD and FLAA are fluorescence signals from the mNeonGreen and mScarlet-I channels, respectively. The correction factors x and y were calculated as follows:(2) x=FLDA/FLDD for samples containing only the donor fluorophore or fluorescent fusion proteins with mNeonGreen and (3) y=FLDA/FLAA for samples containing only the acceptor fluorophore or fluorescent fusion proteins with mScarlet-I in the same concentration as samples containing both the donor and acceptor.
For screening for the identification of ATP-competitive C. albicans HSP90 and HSP90-Sba1 binding inhibitors, 10 µL of HSP90-mNeonGreen ([…]) in HEPES buffer (40 mM HEPES/KOH pH 7.5, 20 mM KCl) was mixed with 10 µL of 200 µM compound solution in 2x reaction buffer (40 mM HEPES/KOH pH 7.5, 20 mM KCl, 10 mM MgCl2, 40 mM Na2MoO4, Triton-X 100 0.2%), 6 mM ATP, 2% DMSO, resulting […] Samples for binding control (3 mM ATP, final concentration) and non-binding control (no ATP) were prepared in the same manner without compounds. The samples were incubated for 15 min at 30 °C prior to measurement.

Test [2] concerns the target T2, human HSP90α–p23 binding (Homo sapiens, UniProt P07900).
T2 construct: made in house; host or cells: E. coli Rosetta2(DE3) pLysS
Nature of the test: FRET inhibitor screening assay, human HSP90α-p23 binding. Conditions: 10 or 100 µM, triplicates, 3 mM ATP, 1% DMSO, 15 min 37 °C. The source says:
We used the Z′ factor (Z′) to optimize the FRET assays for screening purposes. Z′ represents a simple statistical parameter for the quality assessment and optimization of HTS assays and screening assays in general. It is a measure that determines the degree of signal separation between binding and non-binding data sets. Calculation of the Z′ factor is based on the standard deviation of the individual data sets as well as their general signal separation. Values ≥ 0.5 can be classified as excellent for screening purposes. […] When the fluorescent fusion proteins of HSP90 and co-chaperones bind to each other, FRET occurs between donor and acceptor fluorophores, and the sensitized emission (EmFRET) signal increases. Consequently, the fluorescence intensity of the donor decreases (FLDD). […] We defined the ‘hit threshold’ as a decrease in readout signal of more than 3 standard deviations (SDs) from the mean signal of the binding control. This constitutes a common threshold for hit identification in HTS campaigns.
The excitation and emission bandwidths were set to 9 and 20 nm, respectively. Experiments for the determination of the equilibrium dissociation constants were performed with a filter-based microplate reader Infinite F200Pro (Tecan, Männedorf, Switzerland). […] The correction factors x and y were calculated as follows:(2) x=FLDA/FLDD for samples containing only the donor fluorophore or fluorescent fusion proteins with mNeonGreen and (3) y=FLDA/FLAA for samples containing only the acceptor fluorophore or fluorescent fusion proteins with mScarlet-I in the same concentration as samples containing both the donor and acceptor.
For screening for the identification of ATP-competitive C. albicans HSP90 and HSP90-Sba1 binding inhibitors, 10 µL of HSP90-mNeonGreen (2 µM) and Sba1-mScarlet-I (4 µM) in HEPES buffer (40 mM HEPES/KOH pH 7.5, 20 mM KCl) was mixed with 10 µL of 200 µM compound solution in 2x reaction buffer (40 mM HEPES/KOH pH 7.5, 20 mM KCl, 10 mM MgCl2, 40 mM Na2MoO4, Triton-X 100 0.2%), 6 mM ATP, 2% DMSO, resulting ultimately in constant HSP90-mNeonGreen concentrations of 1 µM and Sba1-mScarlet-I 2 µM in reaction buffer. Samples for binding control (3 mM ATP, final concentration) and non-binding control (no ATP) were prepared in the same manner without compounds. The samples were incubated for 15 min at 30 °C prior to measurement. The assay for the human HSP90α–p23 binding inhibitor identification was performed analogously, with the exception that samples were incubated for 15 min at 37 °C prior to measurement. Since binding samples show both a high EmFRET as well as a reduction in donor emission (FLDD), we calculated the quotient (EmFRET/FLDD) to derive an improved signal separation and robustness. The nucleoside-mimetics library was obtained from Enamine (catalog No. NML-320-X-20, Enamine Ltd., Kyiv, Ukraine). Z′ and Z factors were calculated based on Zhang et al..

Test [3] has as its system HSP90 - Sba1/p23 binding. To be noted: according to literature, cited from earlier work.
For test [4], the target named is T3, C. albicans HSP90-mNeonGreen–Sba1-mScarlet-I binding (Candida albicans, UniProt P46598, E36A).
T3 construct: made in house; host or cells: E. coli BL21(DE3)
To be noted: 20 µM added; 1 µM HSP90-mNeonGreen, 2 µM Sba1-mScarlet-I, 5 mM ATP. How it is done:
(§2) In this investigation, 1 µM HSP90-mNeonGreen was incubated with 2 µM Sba1-mScarlet-I in reaction buffer containing 5 mM ATP either alone (UC) or with the addition of 20 µM Sba1. As a negative control, samples containing 20 µM bovine serum albumin (BSA) were used.
as §1
All experiments were carried out in reaction buffer (40 mM HEPES/KOH pH 7.5, 20 mM KCl, 5 mM MgCl2, 20 mM Na2MoO4, Triton-X 100 0.1%). HEPES and KCl were purchased from AppliChem, Darmstadt, Germany. […]

For test [5], the target named is T4, human HSP90α-mNeonGreen–p23-mScarlet-I binding (Homo sapiens, UniProt P07900, E47A).
T4 construct: made in house; host or cells: E. coli Rosetta2(DE3) pLysS
Nature of the test: FRET characterization of model inhibitors and ATP on human HSP90α-p23 binding. To be noted: 20 µM added; 1 µM HSP90α-mNeonGreen, 2 µM p23-mScarlet-I, 5 mM ATP. Here is the method:
as §2, §1
All experiments were carried out in reaction buffer (40 mM HEPES/KOH pH 7.5, 20 mM KCl, 5 mM MgCl2, 20 mM Na2MoO4, Triton-X 100 0.1%). HEPES and KCl were purchased from AppliChem, Darmstadt, Germany. KOH and MgCl2 were obtained from VWR Chemicals, Darmstadt, Germany. Na2MoO4 was from Merck, Darmstadt, Germany. Triton-X 100 was purchased from Serva, Heidelberg, Germany.
For C. albicans Sba1 competition experiments for HSP90-mNeonGreen–Sba1-mScarlet-I binding, 1 µM HSP90-mNeonGreen and 1 µM Sba1-mScarlet-I were incubated with varying concentrations of Sba1 in a range of 0–25,000 nM (lowest non-zero concentration 12 nM) in reaction buffer containing 5 mM ATP. The experiment was performed twice in nonaplicates. For human p23 competition experiments for HSP90α-mNeonGreen–p23-mScarlet-I binding, 1 µM HSP90α-mNeonGreen and 1 µM p23-mScarlet-I were incubated with varying concentrations of p23 in a range of 0–50 000 nM (lowest non-zero concentration 23 nM) in reaction buffer containing 5 mM ATP. The experiment was performed twice in hexaplicates. […] The experiment was performed thrice in triplicates. […] The IC50,rel values were calculated using the equation log (inhibitor) vs. response-variable slope (four parameters) in GraphPad Prism 5. Ki values for inhibition of HSP90-mNeonGreen–Sba1-mScarlet-I/p23-mScarlet-I binding by non-labeled Sba1/p23 were calculated with One Site—Fit Ki in GraphPad Prism 5. […] The EC50,rel values were calculated using the log (agonist) vs. response-variable slope (four parameters) equation in GraphPad Prism 5.

Entries after “also recorded” stand apart in the source; their conditions may differ. Where two headings read alike, the source gives them in different places.

The values below come from publication PMC11053944, “FRET Assays for the Identification of C. albicans HSP90-Sba1 and Human HSP90α-p23 Binding Inhibitors” (Pharmaceuticals, 2024).

T1 sequence (P46598 whole entry): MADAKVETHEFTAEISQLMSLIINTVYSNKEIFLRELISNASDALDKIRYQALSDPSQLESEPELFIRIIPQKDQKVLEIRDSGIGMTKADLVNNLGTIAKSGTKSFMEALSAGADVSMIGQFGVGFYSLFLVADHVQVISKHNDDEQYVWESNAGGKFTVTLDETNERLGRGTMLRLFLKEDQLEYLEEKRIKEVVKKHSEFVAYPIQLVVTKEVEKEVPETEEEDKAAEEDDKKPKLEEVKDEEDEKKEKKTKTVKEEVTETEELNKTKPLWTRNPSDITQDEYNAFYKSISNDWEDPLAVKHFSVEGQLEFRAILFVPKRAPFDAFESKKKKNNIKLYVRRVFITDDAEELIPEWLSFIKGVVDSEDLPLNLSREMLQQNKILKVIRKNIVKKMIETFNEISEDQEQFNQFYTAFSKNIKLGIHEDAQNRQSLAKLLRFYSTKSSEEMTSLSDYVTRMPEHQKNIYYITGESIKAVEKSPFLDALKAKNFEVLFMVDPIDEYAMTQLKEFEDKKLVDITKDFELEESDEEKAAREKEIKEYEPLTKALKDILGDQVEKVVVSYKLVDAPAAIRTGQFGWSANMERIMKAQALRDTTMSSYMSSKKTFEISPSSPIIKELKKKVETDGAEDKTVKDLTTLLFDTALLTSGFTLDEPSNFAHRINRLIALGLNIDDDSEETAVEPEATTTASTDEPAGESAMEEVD
T3 sequence (P46598 whole entry, stated change not applied): as the sequence (P46598 whole entry) above

Regarding `CC1=C(CO)C(=O)O[C@@H]([C@@H](C)[C@H]2CC[C@H]3[C@@H]4C[C@H]5O[C@]56[C@@H](O)C=CC(=O)[C@]6(C)[C@H]4CC[C@]23C)C1` [withaferin A], the “hit identification (EmFRET/FLDD decrease of more than 3 SDs from binding control mean)” value is “do not show an effect; also recorded: show no influence” in test [1] and “show no influence” in test [2]. Also, the “Influence on p23/Sba1 binding” value in test [3] is recorded as “not influence”; in test [3] (listed as Withaferin A), “No”.

Consider `CC1=C(O)C(=O)C=C2C1=CC=C1[C@@]2(C)CC[C@@]2(C)[C@@H]3C[C@](C)(C(=O)O)CC[C@]3(C)CC[C@]12C` [celastrol], for which the “hit identification (EmFRET/FLDD decrease of more than 3 SDs from binding control mean)” value in test [1] and in test [2] was “show no influence” in each case. For the same compound, the “Influence on p23/Sba1 binding” value in test [3] was “No and not influence”.

With bovine serum albumin [BSA], the “effect on FRET emission (EmFRET) versus untreated control” value was “did not show a significant influence; also recorded: no significant (n.s.) reduction” in test [4] and “did not show a significant influence” in test [5].

For `CCNC(=O)c1noc(-c2cc(C(C)C)c(O)cc2O)c1-c1ccc(CN2CCOCC2)cc1` [NVP-AUY922, luminespib], the entries for the “hit identification (EmFRET/FLDD decrease of more than 3 SDs from binding control mean)” value in test [1] and in test [1] (listed as luminespib) were “reliably identified as hits” and “reliably identified as disrupting HSP90-Sba1 binding”, respectively. For the same compound, the “Influence on p23/Sba1 binding” value in test [3] is “Yes”.

In the case of `O=C(O[C@@H]1Cc2c(O)cc(O)cc2O[C@@H]1c1cc(O)c(O)c(O)c1)c1cc(O)c(O)c(O)c1` [EGCG, (−)-Epigallocatechin-3-gallate], the “hit identification (EmFRET/FLDD decrease of more than 3 SDs from binding control mean)” value is “pan-assay interfering compound (PAIN)” in test [1] and “strong decrease in FRET emission; also recorded: pan-assay interfering compound (PAIN)” in test [2]. Also, the “Influence on p23/Sba1 binding” value in test [3] is recorded as “Yes”.

In the case of `C[C@@H]1C[C@H]2O[C@@H]2/C=C\C=C\C(=O)Cc2c(Cl)c(O)cc(O)c2C(=O)O1` [radicicol], in test [1], the “hit identification (EmFRET/FLDD decrease of more than 3 SDs from binding control mean)” value is recorded as “reliably identified as disrupting HSP90-Sba1 binding; also recorded: reliably identified as hits”. Besides, the “Influence on p23/Sba1 binding” value in test [3] is reported as “Yes”.

Regarding `COc1cc(C2Oc3cc([C@H]4Oc5cc(O)cc(O)c5C(=O)[C@@H]4O)ccc3OC2CO)ccc1O` (stereo partly drawn) [silibinin], the figures for the “hit identification (EmFRET/FLDD decrease of more than 3 SDs from binding control mean)” value in test [1] and in test [2] were “do not show an effect; also recorded: show no influence” and “show no influence”, respectively.

For `COc1cc2c(cc1OC)[C@@H]1C(=O)c3ccc4c(c3O[C@@H]1CO2)C=CC(C)(C)O4` [deguelin], the “hit identification (EmFRET/FLDD decrease of more than 3 SDs from binding control mean)” value in test [1] is listed as “do not show an effect; also recorded: show no influence”; in test [2], “show no influence”.
